Where “and” joins values, the source holds several entries; their conditions need not be identical. Identical values can stand only once. Like-named read-outs stand apart in the source and are kept apart here.
T1: recombinant hCES1b (Homo sapiens, UniProt P23141)
T1 sequence (P23141 18-567): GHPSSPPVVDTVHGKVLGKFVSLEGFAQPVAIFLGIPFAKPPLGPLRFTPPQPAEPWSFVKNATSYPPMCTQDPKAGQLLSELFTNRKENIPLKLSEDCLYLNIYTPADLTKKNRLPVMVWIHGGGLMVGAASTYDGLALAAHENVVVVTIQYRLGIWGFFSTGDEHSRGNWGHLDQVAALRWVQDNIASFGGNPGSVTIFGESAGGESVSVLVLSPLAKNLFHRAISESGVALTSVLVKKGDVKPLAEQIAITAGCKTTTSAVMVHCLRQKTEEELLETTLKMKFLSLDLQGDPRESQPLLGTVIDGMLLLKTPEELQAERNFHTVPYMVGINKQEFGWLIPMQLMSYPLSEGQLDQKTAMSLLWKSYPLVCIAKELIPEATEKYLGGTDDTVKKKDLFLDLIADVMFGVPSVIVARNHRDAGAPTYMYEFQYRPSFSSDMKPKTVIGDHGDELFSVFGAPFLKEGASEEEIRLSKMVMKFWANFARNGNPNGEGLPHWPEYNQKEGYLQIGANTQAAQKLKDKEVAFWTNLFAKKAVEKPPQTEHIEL

B1: recombinant hCES1b (Homo sapiens) (protein)
chain: T1 sequence (P23141 18-567)

Assays:
[1] = biological target: T1, recombinant hCES1b; test: Inhibition of hCES1b-mediated fenofibrate hydrolysis (Ki); type: biochemical; settings: matrix hCES1b, substrate fenofibrate
Method: (§1) FIGS. 5A-5D. […] Reaction was stopped, supernatant collected and fenofibric acid level was determined by LC-MS/MS. Ki values were calculated, and the type of inhibition was determined by fitting data to enzyme inhibition models: competitive (FIG. 5A), non-competitive (FIG. 5B), uncompetitive (FIG. 5C) and mixed (FIG. 5D) models. The samples were analyzed in duplicates and represented as mean values.
(§2) Incubation mixtures containing 100 mM Tris-Cl buffer (pH 7.4), recombinant hCES1b (0.05 mg/mL) or pooled human liver microsomes (1 mg/mL) and 8 concentrations of kaempferol or a positive control inhibitor (bis(4-nitrophenyl)-phosphate, BNP) were pre-incubated for 2 minutes at 37° C. […] The reactions were stopped by the addition of a stop solution containing an internal standard. Samples were centrifuged to precipitate protein and the supernatant was collected for LC-MS/MS analysis. The fenofibric acid was quantified using standard curves. The Ki values were calculated, and the type of inhibition was determined by fitting data to specific enzyme inhibition models (Table 2).

[2] = biological target: pooled human liver microsomes (HLM); test: Inhibition of fenofibrate hydrolysis in pooled human liver microsomes (Ki); type: in vitro ADME; settings: matrix HLM, substrate fenofibrate
Method: as §1, with “6A-6D.” for “5A-5D.”, “The reaction” for “Reaction”, “6A),” for “5A),”, “6B),” for “5B),”, “6C)” for “5C)”, “6D)” for “5D)”
as §2

[3] = system: BV2 cells; test: LPS-induced IL-1β and PGC-1α gene expression in BV2 cells (qRT-PCR); type: cell-based; settings: for reduction of LPS-induced IL-1β expression: then 0.1 ng/ml LPS 1 hour
Text: FIG. 4. […] Then total RNA was isolated for IL-1β gene qRT-PCR analysis.
FIGS. 7A and 7B. […] Cell lysates were collected, and RNA was isolated for IL-1β (FIG. 7A) and PGC-1α (FIG. 7B) gene expression by RT-PCR.
Total BV2 cell RNA was extracted for IL-1β gene expression via qRT-PCR analysis.
Cell lysates were collected for determination of IL-1β and PGC-1α gene expression via qRT-PCR.

[4] = Hydrolysis of fenofibrate to fenofibric acid by pooled human liver microsomes (Km, Vmax); settings: pH 7.4
Method: FIGS. 8A and 8B. […] Reaction was stopped, supernatant collected and fenofibric acid level was determined by LC-MS/MS. […] The samples were analyzed in duplicates and represented as mean values.
The reactions were stopped by the addition of a stop solution containing an internal standard.

[5] = system: primary astrocytes derived from PGC-1α WT (PGC-1α+/+) mice; test: LPS-induced inflammation in primary astrocytes from PGC-1α WT mice (RT-PCR gene expression); type: cell-based, mouse; settings: fenofibrate 20 μM overnight, then LPS 1 hour
Method: (§3) Total RNA was isolated and IL-1β (A, D), TNF-α (B, E) and PGC-1α (C, F) gene expression were determined by RT-PCR.
(§4) Primary astrocytes from postnatal heterozygous mice were isolated and cultured and wild type mice were obtained by breeding these heterozygous knockout mice. […] Total RNA was isolated, and gene expression of pro-inflammatory cytokines, IL-1β and TNF-α, was determined by RT-PCR.

[6] = system: primary astrocytes derived from PGC-1α heterozygous KO (PGC-1α+/−) mice; test: LPS-induced inflammation in primary astrocytes from PGC-1α heterozygous KO mice (RT-PCR gene expression); type: cell-based, mouse
Method: as §3, §4

[7] = substrate: CC(C)OC(=O)C(C)(C)Oc1ccc(C(=O)c2ccc(Cl)cc2)cc1; test: cells, lysate or membranes named; type: biochemical, human; settings: other: matrix hCES1b 0.05 mg/mL, product fenofibric acid, pH 7.4, 37° C.
Method: Reaction was stopped, supernatant collected and fenofibric acid level was determined by LC-MS/MS. Standard curve was plotted and the Km and Vmax values were calculated. The samples were analyzed in duplicates and represented as mean values.
Assay procedure: Incubation mixtures containing 100 mM Tris-Cl buffer (pH 7.4), and recombinant hCES1b (0.05 mg/mL) or pooled HLM (1 mg/mL) were warmed to 37° C. […] The reactions were stopped by the addition of a stop solution containing an internal standard. Samples were centrifuged to precipitate the protein while the supernatant was collected for determination of fenofibric acid using liquid chromatography-tandem mass spectrometry (LC-MS/MS) analysis. […] The Km and Vmax values were calculated by fitting data to enzyme kinetics models (Table 1).

[8] = read-out: Ki, Competitive inhibition model
[9] = read-out: Ki, Mixed inhibition model
[10] = read-out: Ki, Non-Competitive inhibition model
[11] = read-out: Ki, Uncompetitive inhibition model

Molecule	Ki [1, 8]	Ki [1, 9]	Ki [1, 10]	Ki [1, 11]	Ki [2, 8]	Ki [2, 9]	Ki [2, 10]	Ki [2, 11]	reduction of LPS-induced IL-1β expression ([3]; 20 μM, 18 hours)	increase of PGC-1α expression ([3]; 20 μM, 18 hours, then LPS 1 hour)	Km at 10 min [4]	reduction of LPS-induced IL-1β expression [5]	enhancement of PGC-1α expression ([6]; fenofibrate 10 and 20 μM)	reduction of LPS-induced IL-1β expression ([6]; fenofibrate overnight (5, 10, 20 μM tested; concentration not stated), then LPS 1 hour)	reduction of LPS-induced IL-1β expression ([3]; 10 μM, 18 hours)	effect on PGC-1α expression ([3]; kaempferol alone 10, 20 μM)	Km [7]	Vmax [7]
O=[N+]([O-])c1ccc(OP(=O)(O)Oc2ccc([N+](=O)[O-])cc2)cc1 [BNP, bis(4-nitrophenyl)-phosphate]	0.044 µM	0.044 µM	0.17 µM	0.096 µM	1.67 µM	1.66 µM	5.17 µM	3.02 µM	–	–	–	–	–	–	–	–	–	–
CC(C)OC(=O)C(C)(C)Oc1ccc(C(=O)c2ccc(Cl)cc2)cc1 [Fenofibrate]	–	–	–	–	–	–	–	–	80% and 70%	2 fold	5.4 µM	60%	1.5 fold	55%	–	–	–	–
O=c1c(O)c(-c2ccc(O)cc2)oc2cc(O)cc(O)c12 [Kaempferol, 3,5,7-trihydroxy-2-(4-hydroxyphenyl)-4H-1-benzopyran-4-one]	36.2 µM	101 µM	101 µM	64.7 µM	110 µM	–	235 µM	131 µM	85%	–	–	–	–	–	60%	did not enhance PGC-1α expression	–	–
B1	–	–	–	–	–	–	–	–	–	–	–	–	–	–	–	–	6.04 µM	0.0283 µmol/min/mg
